Results on 42 compounds are retold here after patent US5703239A, “Indanylpiperidines as melatonergic agents” (Bristol-Myers Squibb Company, priority 1996, dated 1997).

In this assay the target is T1, human ML1B receptor (Homo sapiens, UniProt P49286).
T1 construct: expressed in transfected cells; host or cells: NIH 3T3 cells (stably transfected; obtained from S. M. Reppert)
T1 sequence (P49286 1-362): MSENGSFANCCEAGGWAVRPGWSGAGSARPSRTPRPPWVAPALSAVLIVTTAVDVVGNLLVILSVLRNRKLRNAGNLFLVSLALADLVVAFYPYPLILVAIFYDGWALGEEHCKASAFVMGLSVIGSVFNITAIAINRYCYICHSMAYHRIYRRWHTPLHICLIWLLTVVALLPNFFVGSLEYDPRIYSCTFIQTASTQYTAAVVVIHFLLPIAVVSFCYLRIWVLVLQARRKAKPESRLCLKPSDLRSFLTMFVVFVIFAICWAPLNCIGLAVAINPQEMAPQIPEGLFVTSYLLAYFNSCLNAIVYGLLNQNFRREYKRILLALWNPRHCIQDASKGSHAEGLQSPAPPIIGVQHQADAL
The experiment in a line: Binding to human melatonergic receptors (2-[125I]-iodomelatonin, NIH 3T3 cell membranes, human ML1B receptor). The note with it: IC50 class; 200 pM 2-[125I]-iodomelatonin, 37° C., 1 hour, membranes of NIH 3T3 cells transfected with human ML1B receptor; read-out: Melatonin Binding. On the procedure:
Measurement of Binding to Human Melatonergic Receptors The melatonergic binding affinities of various compounds of Formula I were determined by the method of Reppert, S. M., Weaver, D. R., and Ebisawa, R. (Neuron, Volume 13, 1177-1185, 1994). The assays were incubated at 37° C. for 1 hour, and the reaction was terminated by filtration. The filters were washed with wash buffer. […] The reagents, membrane and other techniques used in the melatonergic binding assays are more fully described below: […] Reagents: (a) 50 mM Tris buffer containing 12.5 mM MgCl2, and 2 mM EDTA, pH 7.4 at 37° C. (b) Wash buffer: 20 mM Tris base containing 2 mM MgCl2. pH 7.4 at room temperature. (c) Melatonin (10^-5 M final concentration). (d) 2-[^125 I]-Iodomelatonin, 200 pM final concentration Source: NEN 2. Membrane preparation: NIH 3T3 cells stably transfected with the human ML1B receptor were obtained from S. M. Reppert and maintained. Cells were pelleted when confluent. The supernatant was discarded and the pellets frozen. For preparing membrane homogenates, the pellets are thawed on ice and resuspended in TME buffer, Tris base, MgCl2, EDTA (pH 7.4 at 37° C.), supplemented with aprotinin, leupeptin, and […]. The cells were then homogenized and centrifuged. The resulting pellet was resuspended with a Dounce homogenizer in TME and frozen. At assay, a small aliquot was thawed on ice and resuspended in TME buffer.
With `O=C(C1CC1)N1CCC(C2CCc3ccccc32)CC1` (stereo not drawn) [1-(Cyclopropylcarbonyl)-4-(indan-1-yl)piperidine], the IC50 was under 10 nM.

Regarding `O=C(C1CC1)N1CCC(C2CCc3ccc(OC(F)(F)F)cc32)CC1` (stereo not drawn) [1-(Cyclopropylcarbonyl)-4-[6-(trifluoromethoxy)-indan-1-yl]piperidine], the IC50 lay within 10 to 100 nM.

Turning to `COc1cc2c(cc1F)CCC2C1CCN(C(C)=O)CC1` (stereo not drawn) [1-Acetyl-4-(5-fluoro-6-methoxy-indan-1-yl)piperidine], the IC50 is under 10 nM.

With `CCC(C)(C)C(=O)N1CCC(C2CCc3ccc(OC)cc32)CC1` (stereo not drawn) [1-(2,2-Dimethyl-butanoyl)-4-(6-methoxy-indan-1-yl)piperidine], the IC50 lay within 10 to 100 nM.

Turning to `CNC(=S)N1CCC(C2CCc3ccc(OC)cc32)CC1` (stereo not drawn) [N-Methyl-4-(6-methoxy-indan-1-yl)-piperidine-1-thiocarboxamide], the IC50 was under 10 nM.

Consider `COc1ccc2c(c1)C(C1CCN(C(=O)c3ccsc3)CC1)CC2` (stereo not drawn) [4-(6-Methoxy-indan-1-yl)-1-[(3-thienyl)carbonyl]piperidine], for which the IC50 was under 10 nM.

Take `COc1ccc2c(c1)C(C1CCN(C(=O)c3csc(Cl)c3OC)CC1)CC2` (stereo not drawn) [1-[(2-Chloro-3-methoxythien-4-yl)carbonyl]-4-(6-methoxy-indan-1-yl)piperidine]: the IC50 fell in the range of 10 to 100 nM.

As for `COc1ccc2c(c1)C(C1CCN(C(=O)C(C)C)CC1)CC2` (stereo not drawn) [4-(6-methoxy-indan-1-yl)-1-(2-methylpropanoyl)piperidine], the IC50 is under 10 nM.

`CCCC(=O)N1CCC(C2CCc3cc(F)c(OC)cc32)CC1` (stereo not drawn) [1-Butanoyl-4-(5-fluoro-6-methoxy-indan-1-yl)piperidine]: the IC50 is under 10 nM.

Regarding `COc1ccc2c(c1)C(C1CCN(C=O)CC1)CC2` (stereo not drawn) [1-Formyl-4-(6-methoxy-indan-1-yl)piperidine], the IC50 was under 10 nM.

With `CCNC(=O)N1CCC(C2CCc3ccc(F)cc32)CC1` (stereo not drawn) [N-Ethyl-4-(6-fluoro-indan-1-yl)piperidine-1-carboxamide], the IC50 is under 10 nM.

For the compound `CCNC(=O)N1CCC(C2CCc3ccc(OC)cc32)CC1` (stereo not drawn) [N-Ethyl-4-(6-methoxy-indan-1-yl)piperidine-1-carboxamide], the IC50 is under 10 nM.

For `CNC(=O)N1CCC(C2CCc3ccccc32)CC1` (stereo not drawn) [N-Methyl-4-(indan-1-yl)-piperidine-1-carboxamide], the IC50 is under 10 nM.

As for `CCNC(=O)N1CCC(C2CCc3ccc(OC)cc32)CC1` (single isomer, unassigned; (-)) [(-)-N-Ethyl-4-(6-methoxy-indan-1-yl)piperidine-1-carboxamide], the IC50 was under 10 nM.

Consider `COc1ccc2c(c1)C(C1CCN(C(=O)c3ccc(C)s3)CC1)CC2` (stereo not drawn) [4-(6-methoxy-indan-1-yl)-1-[(5-methyl-thien-2-yl)carbonyl]piperidine], for which the IC50 fell in the range of 10 to 100 nM.

`COc1ccc2c(c1)C(C1CCN(C(=O)C(F)(F)F)CC1)CC2` (single isomer, unassigned; (-)) [(-)-4-(6-methoxy-indan-1-yl)-1-(trifluoroacetyl)piperidine]: the IC50 is under 10 nM.

For the compound `CCc1ccc2c(c1)C(C1CCN(C(=O)C(C)C)CC1)CC2` (stereo not drawn) [4-(6-Ethyl-indan-1-yl)-1-(2-methylpropanoyl)piperidine], the IC50 was under 10 nM.

On to `COc1ccc2c(c1)C(C1CCN(C(=O)C(F)(F)F)CC1)CC2` (stereo not drawn) [4-(6-methoxy-indan-1-yl)-1-(trifluoroacetyl)piperidine], for which the IC50 is under 10 nM.

In the case of `COc1ccc2c(c1)C(C1CCN(C(=O)c3ccco3)CC1)CC2` (stereo not drawn) [1-[(2-Furanyl)carbonyl]-4-(6-methoxy-indan-1-yl)-piperidine], the IC50 was under 10 nM.

Turning to `COc1ccc2c(c1)C(C1CCN(C=O)CC1)CC2` (single isomer, unassigned; (-)) [(-)-1-Formyl-4-(6-methoxy-indan-1-yl)piperidine], the IC50 was under 10 nM.

Turning to `COc1ccc2c(c1)C(C1CCN(C(=O)C(C)C)CC1)CC2` (single isomer, unassigned; (+)) [(+)-4-(6-Methoxy-indan-1-yl)-1-(2-methylpropanoyl)piperidine], the IC50 lay in the range of 10 to 100 nM.

As to `CCNC(=O)N1CCC(C2CCc3ccc(OC(F)(F)F)cc32)CC1` (stereo not drawn) [N-Ethyl-4-[6-(trifluoromethoxy)-indan-1-yl]piperidine-1-carboxamide], the IC50 fell in the range of 10 to 100 nM.

On to `COCC(=O)N1CCC(C2CCc3ccc(OC)cc32)CC1` (single isomer, unassigned; (-)) [(-)-4-(6-Methoxy-indan-1-yl)-1-(2-methoxyacetyl)piperidine], for which the IC50 is under 10 nM.

As for `COc1ccc2c(c1)C(C1CCN(C(C)=O)CC1)CC2` (single isomer, unassigned; (-)) [(-)-1-Acetyl-4-(6-methoxy-indan-1-yl)piperidine], the IC50 is under 10 nM.

As to `CC(C)C(=O)N1CCC(C2CCc3ccc(F)cc32)CC1` (stereo not drawn) [4-(6-Fluoro-indan-1-yl)-1-(2-methylpropanoyl)piperidine], the IC50 was under 10 nM.

For the compound `CCCC(=O)N1CCC(C2CCc3ccc(F)cc32)CC1` (stereo not drawn) [1-Butanoyl-4-(6-fluoro-indan-1-yl)piperidine], the IC50 is under 10 nM.

Take `CNC(=O)N1CCC(C2CCc3cc(F)c(OC)cc32)CC1` (stereo not drawn) [N-Methyl-4-(5-fluoro-6-methoxy-indan-1-yl)piperidine-1-carboxamide]: the IC50 was under 10 nM.

As to `COc1ccc2c(c1)C(C1CCN(C(=O)c3csnn3)CC1)CC2` (stereo not drawn) [4-(6-Methoxy-indan-1-yl)-1-[(1,2,3-thiadiazol-4-yl)carbonyl]piperidine], the IC50 was under 10 nM.

As for `COc1ccc2c(c1)C(C1CCN(C(=O)c3occc3C)CC1)CC2` (stereo not drawn) [4-(6-Methoxy-indan-1-yl)-1-[(3-methyl-furan-2-yl)carbonyl]piperidine], the IC50 was under 10 nM.

`COc1cc2c(cc1F)CCC2C1CCN(C(=O)C(C)C)CC1` (stereo not drawn) [4-(5-Fluoro-6-methoxy-indan-1-yl)1-(2-methylpropanoyl)piperidine]: the IC50 was under 10 nM.

With `COc1ccc2c(c1)C(C1CCN(C(=O)N(C)C)CC1)CC2` (single isomer, unassigned; (-)) [(-)-N,N-Dimethyl-4-(6-methoxy-indan-1-yl)piperidine-1-carboxamide], the IC50 is under 10 nM.

In the case of `O=C(C1CC1)N1CCC(C2CCc3ccc(O)cc32)CC1` (stereo not drawn) [N-(Cyclopropylcarbonyl)-4-(6-hydroxy-indan-1-yl)piperidine], the IC50 was 10 to 100 nM.

Take `COc1ccc2c(c1)C(C1CCN(C(=O)C(F)(F)F)CC1)CC2` (single isomer, unassigned; (+)) [(+)-4-(6-Methoxy-indan-1-yl)-1-(trifluoroacetyl)piperidine]: the IC50 fell in the range of 10 to 100 nM.

For `CCCC(=O)N1CCC(C2CCc3ccc(OC)cc32)CC1` (single isomer, unassigned; (-)) [(-)-1-Butanoyl-4-(6-methoxy-indan-1-yl)piperidine], the IC50 was under 10 nM.

Consider `CNC(=O)N1CCC(C2CCc3ccc(OC)cc32)CC1` (single isomer, unassigned; (-)) [(-)-N-Methyl-4-(6-methoxy-indan-1-yl)piperidine-1-carboxamide], for which the IC50 was under 10 nM.

On to `CCNC(=O)N1CCC(C2CCc3cc(F)c(OC)cc32)CC1` (stereo not drawn) [N-Ethyl-4-(5-fluoro-6-methoxy-indan-1-yl)piperidine-1-carboxamide], for which the IC50 is 10 to 100 nM.

As to `COCC(=O)N1CCC(C2CCc3ccc(OC)cc32)CC1` (stereo not drawn) [4-(6-Methoxy-indan-1-yl)-1-(2-methoxy-acetyl)piperidine], the IC50 was under 10 nM.

Consider `COc1ccc2c(c1)C(C1CCN(C(=O)C(C)C)CC1)CC2` (single isomer, unassigned; (-)) [(-)-4-(6-Methoxy-indan-1-yl)-1-(2-methyl-propanoyl)piperidine], for which the IC50 is under 10 nM.

Regarding `COc1ccc2c(c1)C(C1CCN(C(=O)c3ccoc3)CC1)CC2` (stereo not drawn) [1-[(3-Furanyl)carbonyl]4-(6-methoxy-indan-1-yl)-piperidine], the IC50 is under 10 nM.

On to `CCNC(=O)N1CCC(C2CCCc3ccc(OC)cc32)CC1` (stereo not drawn) [N-Ethyl-4-(7-methoxy-tetralin-1-yl)piperidine-1-carboxamide], for which the IC50 lay within 10 to 100 nM.

`CCc1ccc2c(c1)C(C1CCN(C(=O)C3CC3)CC1)CC2` (stereo not drawn) [1-(Cyclopropylcarbonyl)-4-(6-ethyl-indan-1-yl)piperidine]: the IC50 was under 10 nM.

Consider `CCCCCCCOc1ccc2c(c1)C(C1CCN(C(=O)NCC)CC1)CC2` (stereo not drawn) [N-Ethyl-4-[6-(n-heptyloxy)-indan-1-yl]piperidine-1-carboxamide], for which the IC50 was under 10 nM.
